The source of these data is ChEMBL document CHEMBL2321677, “Cyclic analogs of galanin and neuropeptide Y by hydrocarbon stapling” (Bioorg Med Chem, 2013).

The source made the active and inactive calls. The calls are words filed in the database; no cut-off is given here. Bridge positions count the residues as written; N and C are the ends. Square brackets hold non-standard residues; d marks the D form. Peptide text beside a SMILES is read from it. * marks the point of attachment. X1 = CC(=O)N(C(=O)CCCCCN)[C@@H](C)C(=O)*; S5 = C=CCCC[C@](C)(N)C(=O)O; Sar = CNCC(=O)O

Data set [1] is described as follows: n-octanol-water partition coefficient, log D of the compound by shake-flask method. Type of data set: physicochemical.
For data set [2], the target named is T1, Neuropeptide Y receptor type 2 (Homo sapiens, UniProt P49146).
T1 sequence (P49146 whole entry): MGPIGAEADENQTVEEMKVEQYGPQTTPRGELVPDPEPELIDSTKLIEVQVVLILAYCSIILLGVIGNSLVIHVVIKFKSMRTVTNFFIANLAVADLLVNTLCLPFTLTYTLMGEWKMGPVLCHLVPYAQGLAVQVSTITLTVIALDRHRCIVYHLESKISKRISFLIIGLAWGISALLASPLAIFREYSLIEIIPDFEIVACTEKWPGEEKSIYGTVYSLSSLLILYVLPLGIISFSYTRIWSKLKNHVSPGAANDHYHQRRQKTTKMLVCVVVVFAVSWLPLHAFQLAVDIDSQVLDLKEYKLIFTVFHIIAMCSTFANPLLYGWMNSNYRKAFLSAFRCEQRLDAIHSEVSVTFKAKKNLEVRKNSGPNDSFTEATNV
Kind of data set: Agonist activity at human NPY2R expressed inj CHOK1 cells assessed as inhibition of forskolin-stimulated cAMP production after 30 mins by luminescence assay. Type of data set: functional, cell-based, CHO-K1. On the technique in general: Cyclic AMP is a second messenger, typically raised through Gs and lowered through Gi signalling.

Data set [3] can be described thus: Half life in rat serum by HPLC analysis. Type of data set: ADME, cell-free.
The test system of data set [4] is Mus musculus. Kind of data set: Neurotoxicity against CF1 albino mouse assessed as motor impairment at 0.1 nmol/5 ul, icv after 0.5 hrs by rotarod test. Type of data set: toxicity, organism-based. Particulars: in vivo, icv_or_intrathecal. For orientation: In the rotarod test animals must keep their balance on a rotating rod.
The test system of data set [5] is Mus musculus. As to the kind of experiment: Anticonvulsant activity in CF1 albino mouse assessed as protection against 6Hz partial psychomotor seizure at 1 nmol/5 ul, icv after 0.5 hrs relative to control. The format is functional, organism-based.
The target in the next data set is T2, Galanin receptor type 1 (Homo sapiens, UniProt P47211).
T2 sequence (P47211 whole entry): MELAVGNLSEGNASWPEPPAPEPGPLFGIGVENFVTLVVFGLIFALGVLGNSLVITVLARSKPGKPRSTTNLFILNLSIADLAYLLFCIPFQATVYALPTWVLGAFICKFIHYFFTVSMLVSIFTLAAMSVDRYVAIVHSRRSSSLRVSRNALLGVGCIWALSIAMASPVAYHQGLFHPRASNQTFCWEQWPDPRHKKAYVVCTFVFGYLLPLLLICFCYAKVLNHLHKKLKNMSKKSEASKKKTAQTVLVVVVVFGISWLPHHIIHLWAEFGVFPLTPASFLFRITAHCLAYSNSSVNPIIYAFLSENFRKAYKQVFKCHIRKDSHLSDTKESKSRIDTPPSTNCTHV
Kind of data set: Displacement of euporium-galanin from human GalR1 after 1.5 hrs by DELFIA assay.

A further data set addresses T3, Galanin receptor type 2 (Homo sapiens, UniProt O43603).
T3 sequence (O43603 whole entry): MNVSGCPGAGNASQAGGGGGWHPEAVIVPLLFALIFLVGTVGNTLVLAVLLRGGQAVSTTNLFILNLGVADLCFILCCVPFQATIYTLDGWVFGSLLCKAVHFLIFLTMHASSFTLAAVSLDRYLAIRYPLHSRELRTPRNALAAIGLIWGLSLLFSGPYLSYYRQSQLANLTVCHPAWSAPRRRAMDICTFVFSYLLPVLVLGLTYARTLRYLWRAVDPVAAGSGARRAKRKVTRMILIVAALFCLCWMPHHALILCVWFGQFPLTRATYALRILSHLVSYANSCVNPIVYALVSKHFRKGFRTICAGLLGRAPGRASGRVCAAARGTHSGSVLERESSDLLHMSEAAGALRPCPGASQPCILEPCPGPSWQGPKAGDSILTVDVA
As to the kind of experiment: Displacement of euporium-galanin from human GalR2 after 1.5 hrs by DELFIA assay.

Data set [6] in a line: n-octanol-water partition coefficient, log D of the compound by HPLC capacity factor method. The format is physicochemical.

Broadly, the logD is the decadic logarithm of the distribution of all forms, ionised or not, between an organic phase and buffer at a given pH. Higher therefore signals higher lipophilicity. By EC50 is commonly meant the concentration at which the effect is half-maximal. As a reminder, the half-life is the time in which the quantity being followed falls by half. Read a low half-life as rapid decline. In turn, `CC[C@H](C)[C@H](NC(=O)[C@H](Cc1ccc(O)cc1)NC(=O)[C@H](Cc1cnc[nH]1)NC(=O)[C@H](CCCN=C(N)N)NC(=O)[C@H](C)N(C(=O)CCCCCN)C(=O)[C@]1(C)CCC/C=C\CCC[C@](C)(NC(=O)[C@H](Cc2ccc(O)cc2)NC(C)=O)C(=O)N[C@@H](CCCCN)C(=O)N[C@@H](CCCCN)C(=O)N[C@@H](CCCCN)C(=O)N1)C(=O)N[C@@H](CC(N)=O)C(=O)N[C@@H](CC(C)C)C(=O)N[C@@H](CC(C)C)C(=O)N[C@H](C(=O)N[C@@H](CCCN=C(N)N)C(=O)N[C@@H](CCC(N)=O)C(=O)N[C@@H](CCCN=C(N)N)C(=O)N[C@@H](Cc1ccc(O)cc1)C(N)=O)[C@@H](C)O` came in with a logD in data set [1] of 0.08. The EC50 in data set [2] was 403 nM. The compound also showed a half-life in data set [3] of 1.8 h. The Activity entry in the data set on Mus musculus [4] is “Non-toxic”.

For `CC[C@H](C)[C@H](NC(=O)[C@H](Cc1ccc(O)cc1)NC(=O)[C@H](Cc1c[nH]cn1)NC(=O)[C@H](CCCN=C(N)N)NC(=O)[C@H](CC(C)C)NC(=O)[C@H](C)NC(=O)[C@H](CO)NC(=O)[C@H](Cc1ccc(O)cc1)NC(=O)[C@H](Cc1ccc(O)cc1)NC(=O)[C@H](CCCN=C(N)N)NC(=O)[C@H](C)NC(=O)[C@H](CC(C)C)NC(=O)[C@H](CC(=O)O)NC(=O)[C@H](CCC(=O)O)NC(=O)[C@H](C)NC(=O)[C@@H]1CCCN1)C(=O)N[C@@H](CC(N)=O)C(=O)N[C@@H](CC(C)C)C(=O)N[C@H](C(=O)N[C@H](C(=O)N[C@@H](CCCN=C(N)N)C(=O)N[C@@H](CCC(N)=O)C(=O)N[C@@H](CCCN=C(N)N)C(=O)N[C@@H](Cc1ccc(O)cc1)C(=O)O)[C@@H](C)O)[C@@H](C)CC`, the result with Mus musculus [5] was inactive. Also, the Activity entry in the data set with Mus musculus [4] is “Non-toxic”.

Regarding `CC(C)C[C@H](NC(=O)[C@H](CC(C)C)NC(=O)[C@H](Cc1ccc(O)cc1)NC(=O)CNC(=O)[C@H](C)NC(=O)[C@H](CO)NC(=O)[C@H](CC(N)=O)NC(=O)[C@H](CC(C)C)NC(=O)[C@@H](NC(=O)[C@H](Cc1c[nH]c2ccccc12)NC(=O)CN)[C@@H](C)O)C(=O)NCC(=O)N1CCC[C@H]1C(=O)N[C@@H](Cc1cnc[nH]1)C(=O)N[C@@H](C)C(=O)N[C@H](C(N)=O)C(C)C`, in the data set with Mus musculus [5], the outcome was inactive. In data set [3], this compound came in with a half-life of 0.13 h. Also, the Activity entry in the data set on Mus musculus [4] was “Non-toxic”.

On to `CC[C@H](C)[C@H](NC(=O)[C@H](Cc1ccc(O)cc1)NC(=O)[C@H](Cc1cnc[nH]1)NC(=O)[C@H](CCCNC(=N)N)NC(=O)[C@H](C)N(C(=O)CCCCCN)C(=O)[C@]1(C)CCC/C=C\CCC[C@](C)(NC(=O)[C@H](Cc2ccc(O)cc2)NC(C)=O)C(=O)N[C@@H](CCCCN)C(=O)N[C@@H](CCCCN)C(=O)N[C@@H](CCCCN)C(=O)N1)C(=O)N[C@@H](CC(N)=O)C(=O)N[C@@H](CC(C)C)C(=O)N[C@@H](CC(C)C)C(=O)N[C@H](C(=O)N[C@@H](CCCNC(=N)N)C(=O)N[C@@H](CCC(N)=O)C(=O)N[C@@H](CCCNC(=N)N)C(=O)N[C@@H](Cc1ccc(O)cc1)C(N)=O)[C@@H](C)O`, for which the result in the data set on Mus musculus [5] was Active.

With `CC(=O)N[C@@H](C)C(=O)N[C@@H](CCCNC(=N)N)C(=O)N[C@@H](Cc1cnc[nH]1)C(=O)N[C@@H](Cc1ccc(O)cc1)C(=O)N[C@@]1(C)CCC/C=C/CCC[C@@](C)(C(=O)N[C@@H](CCCNC(=N)N)C(=O)N[C@@H](CCC(N)=O)C(=O)N[C@@H](CCCNC(=N)N)C(=O)N[C@@H](Cc2ccc(O)cc2)C(N)=O)NC(=O)[C@H](CC(C)C)NC(=O)[C@H](CC(C)C)NC(=O)[C@H](CC(N)=O)NC1=O` (Ac-ARHY[S5]NLL[S5]RQRY-NH2; staple (E) 5-9), the logD in data set [1] was -0.71. In the data set on Mus musculus [5], the result was Active. The compound further showed a half-life in data set [3] of 2.7 h. For the same compound, the Activity result in the data set with Mus musculus [4] is on record as “Toxic”.

For orientation: Ki means a dissociation constant, usually derived from enzyme kinetics or from competition with a known ligand. What is called chromatographic logD is lipophilicity estimated from chromatographic retention. A higher chromatographic logD goes with higher lipophilicity. With `CNCC(=O)N[C@@H](Cc1c[nH]c2ccccc12)C(=O)N[C@H](C(=O)N[C@@H](CC(C)C)C(=O)N[C@@H](CC(N)=O)C(=O)N[C@@H](CO)C(=O)N[C@@H](C)C(=O)NCC(=O)N[C@@H](Cc1ccc(O)cc1)C(=O)N[C@@H](CC(C)C)C(=O)N[C@@H](CC(C)C)C(=O)NCC(=O)N1CCC[C@H]1C(=O)N[C@@]1(C)CCC/C=C\CCC[C@@](C)(C(=O)N[C@@H](CCCCN)C(N)=O)NC(=O)[C@H](CCCCN)NC(=O)[C@H](CCCCN)NC(=O)[C@H](CCCCN)NC1=O)[C@@H](C)O` (H-[Sar]WTLNSAGYLLGP[S5]KKK[S5]K-NH2; staple (Z) 14-18), the Ki on Galanin receptor type 1 worked out at 3.8 nM; on Galanin receptor type 2, 15.6 nM. In addition, in the data set on Mus musculus [5], the result was Active. The same compound gave a half-life in data set [3] of 15.7 h. Besides, the Activity entry in the data set on Mus musculus [4] is “Non-toxic”. The compound also showed a chromatographic logD in data set [6] of 0.78.

With `CNCC(=O)N[C@@H](Cc1c[nH]c2ccccc12)C(=O)N[C@H](C(=O)N[C@@H](CC(C)C)C(=O)N[C@@H](CC(N)=O)C(=O)N[C@@H](CO)C(=O)N[C@@]1(C)CCC/C=C/CCC[C@@](C)(C(=O)NCC(=O)N2CCC[C@H]2C(=O)N[C@@H](CCCCN)C(=O)N[C@@H](CCCCN)C(=O)N[C@@H](CCCCN)C(=O)N[C@@H](CCCCN)C(N)=O)NC(=O)[C@H](CC(C)C)NC(=O)[C@H](Cc2ccc(O)cc2)NC(=O)CNC1=O)[C@@H](C)O` (H-[Sar]WTLNS[S5]GYL[S5]GPKKKK-NH2; staple (E) 7-11), the Ki on Galanin receptor type 1 is 37.5 nM; on Galanin receptor type 2 it was 119 nM. Besides, in the data set with Mus musculus [5], the result was Active. In addition, the half-life in data set [3] was 6.4 h. For the same compound, the Activity entry in the data set on Mus musculus [4] is “Non-toxic”. In data set [6], this compound returned a chromatographic logD of 0.71.

Compound `CC[C@H](C)[C@H](NC(=O)[C@H](Cc1ccc(O)cc1)NC(=O)[C@H](Cc1cnc[nH]1)NC(=O)[C@H](CCCNC(=N)N)NC(=O)[C@H](C)N(C(C)=O)C(=O)CCCCCN)C(=O)N[C@@H](CC(N)=O)C(=O)N[C@@H](CC(C)C)C(=O)N[C@H](C(=O)N[C@H](C(=O)N[C@@H](CCCNC(=N)N)C(=O)N[C@@H](CCC(N)=O)C(=O)N[C@@H](CCCNC(=N)N)C(=O)N[C@@H](Cc1ccc(O)cc1)C(N)=O)[C@@H](C)O)[C@@H](C)CC` (X1-RHYINLITRQRY-NH2) returned a logD in data set [1] of -2.13. In data set [3], the half-life is 0.57 h.
